Data reported in EP2890687B1, “SALTS OF BENZOTHIAZOLONE COMPOUND AS BETA-2-ADRENOCEPTOR AGONIST” (priority 2012, dated 2014).
Values after ≈ are worked out from the molar mass of the structure shown. Where two headings read alike, the source gives them in different places.

Legend:
β1 AR = β1 AR (Homo sapiens, UniProt P08588); test: cAMP functional assay in CHO cells stably transfected with human β1 adrenoceptor (Test 1); conditions: for Emax: CHO, read-out: CHO cells Emax % β1 AR
human 5-HT2C receptor = target: T1, human 5-HT2C receptor (Homo sapiens, UniProt P28335); test: 3H-Mesulergine binding to hr5-HT2C CHO cell membranes; conditions: 3H-Mesulergine 1 nM, kind of constant not stated
T1 construct: purchased Biosignal Packard, USA; host or cells: CHO cell membranes
T1 sequence (P28335 33-458): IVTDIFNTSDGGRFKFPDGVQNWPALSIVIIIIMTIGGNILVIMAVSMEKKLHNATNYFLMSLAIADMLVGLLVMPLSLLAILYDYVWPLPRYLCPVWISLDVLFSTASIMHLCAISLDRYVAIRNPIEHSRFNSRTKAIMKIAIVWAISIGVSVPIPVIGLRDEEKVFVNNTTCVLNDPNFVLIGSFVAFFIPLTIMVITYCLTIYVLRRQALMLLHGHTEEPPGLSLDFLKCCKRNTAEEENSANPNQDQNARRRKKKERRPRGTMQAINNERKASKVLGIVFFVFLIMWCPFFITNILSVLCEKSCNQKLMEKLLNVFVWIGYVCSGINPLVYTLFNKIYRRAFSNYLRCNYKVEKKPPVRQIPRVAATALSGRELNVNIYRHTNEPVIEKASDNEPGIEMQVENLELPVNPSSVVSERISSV
Experimental: Non-specific binding is evaluated in the presence of 1 µM Mesulergine. Fifty µL each of membrane, ligand and compound in a total volume of 250 µL are incubated in 96-well plates for 60 min at 22° C in a buffer containing 50 mM Tris, 0.1% ascorbic acid, 10 µM Pargyline, pH 7.7. The plates are filtrated, washed 3 times in ice-cold 50 mM Tris, dred and measured in Topcount.

Human skMC = test: cAMP response in primary human skeletal muscle cells (differentiated skeletal myotubes); conditions: read-out: Primary cells; for EC50: cAMP response EC50 Human skMC, differentiated skeletal myotubes; for Emax: cAMP response Emax % Human skMC
Serotonin 5-HT2C = target: T2, Serotonin 5-HT2C (Homo sapiens, UniProt P28335); test: Aequorin agonist assay in CHO-K1 cells expressing recombinant Serotonin 5-HT2Cne and Gα16; format: cell-based; conditions: for Emax: CHO-K1, percentage of the activity of the reference agonist at its EC100
T2 construct: expressed in transfected cells; host or cells: CHO-K1 coexpressing mitochondrial apoaequorin and Gα16
T2 sequence (P28335 33-458): T1 sequence (P28335 33-458)

β2 AR = β2 AR (Homo sapiens, UniProt P07550); test: cAMP functional assay in CHO cells stably transfected with human β2 adrenoceptor (Test 1); conditions: for Emax: CHO, read-out: CHO cells Emax % β2 AR, cAMP, compared to isoprenaline; for EC50: CHO cells EC50 β2 AR, cAMP, CHO cells stably transfected with human β2 adrenoceptor
[1] = Comparative solubility in H2O with pH adjustment by HCl or NaOH; format: physicochemical; conditions: water, read-out: solubility in H2O, Conc
Experimental: The relative solubilities of the free base form and the acetate and glycolate salt forms of Compound A were analysed and the results are show in the table below. Solutions were titrated with addition of HCl or NaOH for pH adjustment. The improved aqueous solubilities of the acetate and glycolate salt forms relative to the free base form of Compound A make the acetate and glycolate salts of Compound A more suitable for subcutaneous injection or infusion.

Sino-Atrial node = Sino-Atrial node beating rate in isolated rabbit right atrium; design: species or system New Zealand white female rabbits; conditions: n=6
Adrenergic beta1 = Adrenergic beta1 (Cavia porcellus, UniProt H0W3H1); test: Left atrium contraction assay (Ricerca, Adrenergic beta1); design: species or system Dunkin Hartley Guinea pig
Rat skMC = test: cAMP response in primary rat skeletal muscle cells
rats = test: Heart rate in rats after s.c. bolus; format: in vivo, Wistar Han (W-H) IGS rats; conditions: up to 0.3 mg/kg, Figures 3a-3c
Excerpt: Wistar Han (W-H) IGS (International Genetic Standard) rats (Crl:WI(Han)) were purchased from Charles River Laboratories. Femoral arterial and venous catheters were chronically implanted and exteriorized through a spring tether-swivel system and housed in specialized cages. Arterial catheter was connected to a pressure transducer to continuously measure pulse pressure, mean arterial pressure and heart rate, which was derived from the blood pressure signal, via a digital data acquisition system. Compounds were administered via s.c catheter implanted through the skin buttun. Values are expressed as means ± SEM (n=3).

[2] = system: isolated Langendorff perfused rabbit hearts; test: Automaticity in isolated Langendorff perfused rabbit hearts
Rhesus monkeys = test: Heart rate in rhesus monkeys after single s.c. administration; format: in vivo; conditions: s.c. bolus, up to 0.03 mg/kg, Figures 4a, 4b
Experimental: Rhesus monkeys, 24 females with body weight around 4 to 8 kg, were randomized into 4 groups of n=6. The animals were restrained on a chair up to 4 hours after single subcutaneous administration of compounds, and then returned to their pens. Heart rates were measured using a Surgivet V3304 device. Values are expressed as means ± SEM (n=6).

[3] = Steady state plasma concentration in the rat minipump study; format: in vivo, Male Wistar Han IGS rats; conditions: rats
Experimental: Rats were acclimated to the facility for 7 days. […] Food and water were provided ad libitum. […] Body weights were measured twice per week. […] Brain weight was used for normalization of organ weights. Results are expressed as mean +/-SEM.

Rat cardiomyocytes = test: cAMP response in primary rat cardiomyocytes; conditions: Cardiomyocyte
[4] = system: skeletal muscle and heart; conditions: rats
α1A AR = target: T3, α1A AR (Homo sapiens, UniProt P35348); test: Ca2+ FLIPR assay in human adrenergic Alpha1A CHO-K1 cell line (Test 1); format: cell-based; conditions: summary in words
T3 construct: host or cells: CHO-K1
T3 sequence (P35348 1-466): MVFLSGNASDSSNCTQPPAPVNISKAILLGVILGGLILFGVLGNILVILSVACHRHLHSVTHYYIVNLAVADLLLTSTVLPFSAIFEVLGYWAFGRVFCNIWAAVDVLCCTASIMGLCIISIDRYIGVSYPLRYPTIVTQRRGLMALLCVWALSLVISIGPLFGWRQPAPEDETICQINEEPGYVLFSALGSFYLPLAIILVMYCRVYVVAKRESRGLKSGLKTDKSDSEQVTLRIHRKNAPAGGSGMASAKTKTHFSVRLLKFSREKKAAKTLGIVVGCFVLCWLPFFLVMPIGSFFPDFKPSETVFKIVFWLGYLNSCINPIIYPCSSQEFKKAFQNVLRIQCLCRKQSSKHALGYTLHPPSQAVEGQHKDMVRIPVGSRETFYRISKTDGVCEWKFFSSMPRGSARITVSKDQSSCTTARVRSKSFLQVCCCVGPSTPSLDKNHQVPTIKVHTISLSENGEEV

[5] = Homo sapiens, Myotube, compared to formoterol

Chain of β2 AR (P07550 whole entry): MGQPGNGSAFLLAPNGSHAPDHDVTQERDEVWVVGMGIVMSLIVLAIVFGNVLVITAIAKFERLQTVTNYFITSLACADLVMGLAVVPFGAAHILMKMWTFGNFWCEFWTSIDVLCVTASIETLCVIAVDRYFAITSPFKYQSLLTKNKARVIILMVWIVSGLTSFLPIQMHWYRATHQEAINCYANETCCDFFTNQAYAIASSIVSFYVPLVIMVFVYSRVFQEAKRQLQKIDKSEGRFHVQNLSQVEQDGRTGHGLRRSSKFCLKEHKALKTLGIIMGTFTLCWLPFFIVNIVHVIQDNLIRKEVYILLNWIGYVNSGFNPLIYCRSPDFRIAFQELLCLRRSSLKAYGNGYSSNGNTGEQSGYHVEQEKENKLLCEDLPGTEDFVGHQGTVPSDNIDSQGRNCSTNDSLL
Chain of β1 AR (P08588 whole entry): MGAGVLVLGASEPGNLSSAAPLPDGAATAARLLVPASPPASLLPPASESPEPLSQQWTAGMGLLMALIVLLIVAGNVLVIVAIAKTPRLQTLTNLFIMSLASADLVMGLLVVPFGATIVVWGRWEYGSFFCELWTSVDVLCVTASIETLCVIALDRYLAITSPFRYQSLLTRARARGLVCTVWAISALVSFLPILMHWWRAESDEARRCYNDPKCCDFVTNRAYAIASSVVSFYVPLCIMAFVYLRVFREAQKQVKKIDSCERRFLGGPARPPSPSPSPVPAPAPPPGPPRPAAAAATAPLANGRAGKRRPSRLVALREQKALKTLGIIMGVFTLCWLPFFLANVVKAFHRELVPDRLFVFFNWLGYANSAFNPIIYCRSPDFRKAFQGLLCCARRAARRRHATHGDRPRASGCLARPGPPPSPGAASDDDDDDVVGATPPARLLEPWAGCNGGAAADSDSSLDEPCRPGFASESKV
Chain of Adrenergic beta1 (H0W3H1 1-470): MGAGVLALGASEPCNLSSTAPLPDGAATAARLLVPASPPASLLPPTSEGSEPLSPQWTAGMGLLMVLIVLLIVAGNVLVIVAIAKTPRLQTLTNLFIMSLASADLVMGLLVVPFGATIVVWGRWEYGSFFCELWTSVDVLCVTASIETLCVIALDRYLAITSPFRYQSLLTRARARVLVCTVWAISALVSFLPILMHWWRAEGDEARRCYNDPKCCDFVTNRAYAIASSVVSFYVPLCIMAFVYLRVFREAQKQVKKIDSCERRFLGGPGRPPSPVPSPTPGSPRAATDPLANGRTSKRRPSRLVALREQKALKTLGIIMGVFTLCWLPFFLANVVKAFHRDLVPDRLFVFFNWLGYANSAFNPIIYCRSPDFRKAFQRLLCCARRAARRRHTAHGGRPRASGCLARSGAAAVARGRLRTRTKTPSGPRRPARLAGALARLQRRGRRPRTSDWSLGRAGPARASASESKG

CCCCOc1ccc(CC(C)(C)NCC(O)c2cc(O)cc3[nH]c(=O)sc23)cc1 (racemic) [Compound A/B]
Emax (β1 AR): 38%
Serotonin 5-HT2C Binding (human 5-HT2C receptor): 1.7 µM
EC50 (Human skMC; Homo sapiens, Myotube): 0.63 nM
Emax (Human skMC; [5]): 100%
Emax (Serotonin 5-HT2C): 113%
Emax (β2 AR): 87%

CC(=O)O.CCCCOc1ccc(CC(C)(C)NC[C@H](O)c2cc(O)cc3[nH]c(=O)sc23)cc1 [Compound A (R) acetate salt, (R)-7-(2-(1-(4-butoxyphenyl)-2-methylpropan-2-ylamino)-1-hydroxyethyl)-5-hydroxybenzo[d]thiazol-2(3H)-one acetate salt]
Emax (Human skMC; Homo sapiens, Myotube, compared to isoprenaline): 93%
EC50 (Human skMC; acetate salt): 1.7 nM
EC50 (β2 AR): 2.5 nM
solubility ([1]; aqueous buffer, pH 6.0): 1110 µg/mL
solubility ([1]; pH 5.9, aqueous buffer): 1330 µg/mL
solubility ([1]; pH 6.1, aqueous buffer): 1100 µg/mL
solubility ([1]; pH 6.2, aqueous buffer): 550 µg/mL

CCCCOc1ccc(CC(C)(C)NC[C@H](O)c2cc(O)cc3[nH]c(=O)sc23)cc1.O=C(O)CO [Compound A glycolate salt, (R)-7-(2-(1-(4-butoxyphenyl)-2-methylpropan-2-ylamino)-1-hydroxyethyl)-5-hydroxybenzo[d]thiazol-2(3H)-one glycolate salt]
solubility ([1]; pH 5.1, aqueous buffer): 13100 µg/mL
solubility ([1]; pH 5.3, aqueous buffer): 6390 µg/mL
solubility ([1]; pH 5.4, aqueous buffer): 4470 µg/mL

CCCCOc1ccc(CC(C)(C)NC[C@H](O)c2cc(O)cc3[nH]c(=O)sc23)cc1 [Compound A, (R)-7-(2-(1-(4-butoxyphenyl)-2-methylpropan-2-ylamino)-1-hydroxyethyl)-5-hydroxybenzo[d]thiazol-2(3H)-one]
EC50 (β1 AR): 560 nM
Emax (β1 AR): 32%
intrinsic efficacy on β1 AR (β1 AR; summary in words): very low intrinsic efficacy
Sino-Atrial node beating rate, maximum increase (Sino-Atrial node): +6.2%
EC50 (Adrenergic beta1; guinea pig left atria, n=2): > 10000 nM
effects on left atrium contraction (Adrenergic beta1; up to 10 µM): no effects
EC50 (Rat skMC; Myotube, read-out: Primary cells, cAMP response EC50 Rat skMC): 3.4 nM
Emax (Rat skMC; read-out: Primary cells, cAMP response Emax % Rat skMC): 98%
Serotonin 5-HT2C Binding (human 5-HT2C receptor): 11 µM
heart rate change (rats): less heart rate increases compared to formoterol
effects on the pacemaker activity ([2]; compared to Formoterol, Figures 2a, 2b): less direct effects
Automaticity, maximum increase ([2]; isolated rabbit heart, n=3): +17%
heart rate change (Rhesus monkeys): less heart rate increase compared to formoterol
steady state plasma concentration ([3]; 0.01 mg/kg/day s.c. minipump): ~ 0.2 nM
steady state concentration ([3]; 0.1 mg/kg/day s.c. minipump): ~ 2 nM
EC50 (Rat cardiomyocytes; read-out: Primary cells, cAMP response EC50 Rat cardiomyocytes): 5.7 nM
Emax (Rat cardiomyocytes; read-out: Primary cells, cAMP response Emax % Rat cardiomyocytes): 71%
skeletal muscle hypertrophy ([4]; 0.01 mg/kg/day s.c. minipump, 28 days, significant): 11%
heart histopathology ([4]; even at 0.1 mg/kg/day s.c. minipump, 28 days): no findings
skeletal muscle mass and heart mass increase (Figure 1) ([4]; s.c. minipump 28 days, formoterol 0.003-0.03, Compound A 0.01-0.1 mg/kg/day): induces skeletal muscle hypertrophy with minimum impact on heart mass
Emax (Human skMC; [5]): 96%
EC50 (Human skMC; listed as Compound A (R)): 0.7 nM
fold less active on 5-HT2C compared to the racemate or the (S) enantiomer (Serotonin 5-HT2C): over 10 fold
fold less active on 5-HT2C compared to β2 AR agonist activity (Serotonin 5-HT2C; 5-HT2C EC50 versus β2 AR EC50 (5.6 nM)): 50 fold
Emax (Serotonin 5-HT2C): 83%
EC50 (Serotonin 5-HT2C; agonist mode, aequorin luminescence): 280 nM
activity on α1A AR (α1A AR): no activity
EC50 (β2 AR): 5.6 nM
Emax (β2 AR): 88%
solubility ([1]; aqueous buffer, pH 7.0): 50 µg/mL (≈ 116 µM)
solubility ([1]; pH 6.2, aqueous buffer): 270 µg/mL (≈ 627 µM)
solubility ([1]; pH 7.3, aqueous buffer): < 10 µg/mL
solubility ([1]; pH 7.8, aqueous buffer): < 10 µg/mL

CCCCOc1ccc(CC(C)(C)NC[C@@H](O)c2cc(O)cc3[nH]c(=O)sc23)cc1 [Compound B]
Serotonin 5-HT2C Binding (human 5-HT2C receptor): 0.8 µM
EC50 (Human skMC; Homo sapiens, Myotube): 280 nM
Emax (Human skMC; [5]): 100%
Emax (Serotonin 5-HT2C): 99%
Emax (β2 AR): 83%
